According to patent US10537516B2, “Composition for treating skin pigmentation and related methods” (Access Business Group International LLC, priority 2017, dated 2020):
Converted amounts (≈) assume the structure as drawn. “And” between values parts separate entries of the source, which are not always exact repeats. Equal values may be shown once. “Also recorded” adds a separate entry of the source. Read-outs that look alike come from different tables or passages of the source. Marks after values point to notes of the source that are not given here.

Experiments:
[1] = target: T1, tyrosinase enzyme (Mus musculus, UniProt P11344); experiment: Tyrosinase enzyme activity inhibition in treated B16-F10 cells (L-DOPA); format: cell-based; conditions: 72 hours
T1 construct: endogenous in cells; host or cells: B16-F10 (ATCC# CRL-6475) mouse melanoma cells
T1 sequence (P11344 19-533): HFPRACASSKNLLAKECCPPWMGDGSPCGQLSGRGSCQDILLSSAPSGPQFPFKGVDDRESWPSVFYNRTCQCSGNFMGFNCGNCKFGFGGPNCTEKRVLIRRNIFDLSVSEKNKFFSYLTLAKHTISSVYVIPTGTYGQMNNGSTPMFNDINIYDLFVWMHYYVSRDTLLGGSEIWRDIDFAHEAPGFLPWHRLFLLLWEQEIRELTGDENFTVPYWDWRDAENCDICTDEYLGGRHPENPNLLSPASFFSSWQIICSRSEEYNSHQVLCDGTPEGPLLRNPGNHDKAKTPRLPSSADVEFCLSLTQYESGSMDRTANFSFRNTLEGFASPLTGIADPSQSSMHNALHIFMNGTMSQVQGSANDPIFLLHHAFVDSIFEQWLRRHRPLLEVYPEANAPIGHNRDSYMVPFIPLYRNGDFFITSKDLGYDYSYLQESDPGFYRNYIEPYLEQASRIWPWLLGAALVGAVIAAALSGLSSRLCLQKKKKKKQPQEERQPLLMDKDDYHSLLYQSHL
Experimental: The ability of the skin treatment compounds and plant extracts to inhibit tyrosinase enzyme activity was evaluated. Tyrosinase enzyme is involved in melanin production and thus inhibition of tyrosinase may suppress melanin production, which may result in lightening of skin color and/or inhibition of further darkening of skin color. Arbutin is a conventional plant-derived compound used in skin lightening treatments and was therefore selected for use as a positive control. B16-F10 cells were trypsinized using Trypsin-EDTA and cell density was determined. The cell slurry was diluted to a concentration of 18,000 cells per milliliter (mL) in a growth media containing RPMI 1640 supplemented with fetal bovine serum. […] Arbutin was evaluated at concentrations of 0 (untreated), 25, 125, and 250 μg/mL. […] The UV absorbance of each well was determined using a plate reader with the primary wave length set to 475 nm. Tyrosinase inhibition was determined using the UV absorbance at 475 nm according to the following equation: % Inh=(Max signal−Compound signal)/(Max signal−Min signal)×100 Where “% Inh” is the percent inhibition of tyrosinase, the “Max signal” is the UV absorption for cells treated with L-DOPA, and the “Min signal” is the UV absorption of cells not treated with L-DOPA.

[2] = system: B16-F10 cells; experiment: CellTiter-Glo (CTG) Luminescent Cell Viability Assay (cell toxicity); format: cell-based, Mus musculus (mouse); conditions: for IC50: Mus musculus, read-out: IC50 cellular toxicity, skin treatment compound/plant extract
Experimental: The toxicity of the skin treatment compounds and plant extracts was evaluated using the CellTiter-Glo® (CTG) Luminescent Cell Viability Assay from Promega Corporation. The assay determines the number of viable cells in culture based on quantitation of the ATP present, which is indicative of the presence of metabolically active cells.
The CellTiter-Glo® reagent was added to the cells and the luminescence was obtained according to the assay instructions provided by Promega Corporation. The IC50 was calculated for each skin treatment compound or plant extract and the corresponding positive control.

[3] = system: B16-F10 cells; experiment: Melanin elimination in forskolin/8-MOP pre-treated B16-F10 cells; format: cell-based, Mus musculus (mouse); conditions: 72 hours, B16-F10 cells pre-treated with forskolin and 8-MOP; for % Melanin Elimination, skin treatment compound/plant extract: 100 μg/mL, average of two wells
Experimental: (§1) The effects of the present skin treatment compounds and plant extracts were evaluated in vitro using a B16-F10 (ATCC# CRL-6475) cell model. The B16-F10 cell model is a Mus musculus (mouse) melanoma skin cell line. The skin treatment compounds and plant extracts were evaluated for cell toxicity, inhibition of melanin synthesis, inhibition of tyrosinase enzyme activity, and elimination of existing melanin in B16-F10 cells. Tables 1 and 2 below list the 5 skin treatment compounds and 17 skin treatment plant extracts evaluated, respectively.
The ability of the skin treatment compounds and plant extracts to eliminate existing melanin within skin cells was evaluated. Melanin is the pigment in skin cells that is responsible for coloring of the skin and various pigmentation disorders, such as age spots and freckles. Elimination of existing melanin inside a cell may result in lightening of the skin color and/or inhibit further darkening of the skin color. […]
(§2) B16-F10 cells were trypsinized using Trypsin-EDTA and cell density was determined. The cell slurry was diluted to a concentration of 18,000 cells per milliliter (mL) in a growth media containing RPMI 1640 supplemented with fetal bovine serum. The diluted cell slurry was dispensed into the wells of a 24 well cell culture plate at 1 mL per well (18,000 cells/well). The cells were incubated overnight at 37° C. and 5% CO2 in humid conditions.
Following the overnight incubation, the medium was discarded and replaced with 1 mL per well of growth media including 50 μM forskolin (Sigma Cat. #F6886) and 10 μM 8-Methoxypsoralen (8-MOP; Alfa Aesar Cat. #A17108). The cells were then incubated for 72 hours at 37° C. and 5% CO2 in humid conditions.
The medium in each well was discarded and replaced with 1 mL/well. 5 μL of the 200× dilution was added to each well. The treated cells were incubated for 72 hours at 37° C. and 5% CO2 in humid conditions. The skin lightening compounds and plant extracts were evaluated at concentrations of 0 (untreated), 10, 50, and 100 μg/mL. […]
When the treatment period was completed, the medium from each well was discarded and the cells were washed once with 1 mL per well of DPBS. The DPBS wash was removed and 150 μL of 1N sodium hydroxide was added to each well for 30 minutes while the cells were incubated at 80° C. to lyse the cells. Next, 145 μL from each well was transferred to a UV plate and the remaining 5 μL was tested to determine the protein concentration. The UV absorbance of each well was determined using a plate reader with the primary wave length set to 400 nm.
Melanin elimination was determined using the UV absorbance at 400 nm according to the following equation: % Inh=(Max signal−Compound signal)/(Max signal−Min signal)×100
Where “% Inh” is the percent of melanin eliminated from the cell, the “Max signal” is the UV absorption for cells treated with forskolin and 8-MOP, and the “Min signal” is the UV absorption of untreated cells.

[4] = system: B16-F10 cells; experiment: Melanin synthesis inhibition in B16-F10 cells; format: cell-based, Mus musculus (mouse); conditions: 100 μg/mL, 72 hours, average of two wells
Experimental: as §1
The ability of the skin treatment compounds and plant extracts to inhibit melanin synthesis was evaluated. Melanin is the pigment in skin cells that is responsible for coloring of the skin and various pigmentation disorders, such as age spots and freckles. Inhibition of melanin synthesis may result in lightening of the skin color and/or inhibit further darkening of the skin color. Arbutin is a conventional plant-derived compound used in skin lightening treatments and was therefore selected for use as a positive control.
as §2, with “Trypsin-EDTA (GIBCO Cat. #25200-072)” for “Trypsin-EDTA”, “1640 (GIBCO Cat. #22400-089)” for “1640”, “serum (GIBCO Cat. #10099-141).” for “serum.”, “plate (BD Falcon Cat. #353047)” for “plate”
The plated cells were treated by preparing a 200× dilution of each skin lightening compound, plant extract, and arbutin (i.e., the positive control; Sigma Cat. #A4256) in 100% dimethyl sulfoxide (DMSO; Sigma Cat. #D2650). 5 μL of the 200× dilution was added to each well. The treated cells were incubated for 72 hours at 37° C. and 5% CO2 in humid conditions. The skin lightening compounds and plant extracts were evaluated at concentrations of 0 (untreated), 10, 50, and 100 μg/mL. Arbutin was evaluated at concentrations of 0 (untreated), 25, 125, and 250 μg/mL.
When the treatment period was completed, the medium from each well was discarded and the cells were washed once with 1 mL per well of DPBS (Dulbecco's Phosphate-Buffered Saline; Biosera Cat. #LM-S2041). […] The UV absorbance of each well was determined using a plate reader with the primary wave length set to 400 nm.
Melanin synthesis inhibition was determined using the UV absorbance at 400 nm according to the following equation: % Inh=(Max signal−Compound signal)/(Max signal−Min signal)×100

[5] = B16-F10 cells, 72 hours, 0.01 to 100 ug/mL, CellTiter-Glo

SMILES | IC50 cellular toxicity, skin treatment compound/plant extract [2, 5] [µg/mL] | % Melanin Elimination, skin treatment compound/plant extract [3] [%] | % Melanin Synthesis Inhibition, skin treatment compound/plant extract [4] | other results
OC[C@H]1O[C@@H](Oc2ccc(O)cc2)[C@H](O)[C@@H](O)[C@@H]1O [Arbutin] | – | – | – | % Tyrosinase Inhibition (Arbutin) ([1]; arbutin 125 μg/mL, control of the same line): 38.3% and 52.8%
CN[C@@H](C)[C@H]1[C@H](O)C[C@@]2(C)[C@@H]3CC[C@H]4C(C)(C)[C@@H](NC)CC[C@@]45C[C@@]35CC[C@]12C [Cyclovirobuxine D] | >100 | 92.4 | 53.2% | –
Oc1ccc(O)cc1 [Hydroquinone, reference compound] | – | – | – | IC50 cellular toxicity, Hydroquinone IC50 (corresponding positive control) ([2]; B16-F10 cells, 72 hours, hydroquinone positive control run with the substance of the same line): (7.0) μg/mL; also recorded: (4.2) μg/mL; also recorded: (4.1) μg/mL; % Melanin Elimination (hydroquinone control) ([3]; hydroquinone 100 μg/mL): 70.6%
O=C(O)CCCC[C@@H]1CCSS1 (racemic) [Lipoic acid] | >100 | 65.7 | 30.3** % | % Tyrosinase Inhibition, skin treatment compound/plant extract ([1]; 100 μg/mL, average of two wells): 98.6%
C/C=C1/[C@H](O[C@@H]2O[C@H](CO)[C@@H](O)[C@H](O)[C@H]2O)OC=C(C(=O)OC)[C@H]1CC(=O)OCCc1ccc(O)c(O)c1 [Oleuropein] | – | 37.0 | – | IC50 [2, 5]: 90.3 µg/mL (≈ 167 µM)
COc1cc2c3c(c1OC)-c1ccccc1C[C@H]3N(C)CC2 [Nuciferine] | – | 34.1 | – | IC50 ([2]; B16-F10, 72 h): 62.2 µg/mL (≈ 211 µM); inhibition at 100 µg/mL ([4]; Mus musculus, read-out: % Melanin Synthesis Inhibition, skin treatment compound/plant extract): 104%
CC1=C2C[C@H]3[C@@H](CC(=O)[C@H]4C[C@@H](O)CC[C@@]43C)[C@@H]2CC[C@]12O[C@@H]1C[C@H](C)CN[C@H]1[C@H]2C [Peimisine] | >50 | 23.8 | 62.1% | –
